Data as given in PubChem BioAssay (NCI).
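Values below derive from 48-hour exposures of cells grown in 96-well plates, with endpoints linearly interpolated between the two concentrations bracketing the appropriate inhibition level. GI50 = concentration required for 50% inhibition of growth. TGI is the concentration that stops growth completely.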

Key:
Experiment in all cases: NCI anticancer screen, dose series, 48 h
EKVX NSCLC = test system: EKVX NSCLC
HCT-15 colon = test system: HCT-15 colon
LOX IMVI melanoma = test system: LOX IMVI melanoma
MALME-3M melanoma = test system: MALME-3M melanoma
OVCAR-4 ovarian = test system: OVCAR-4 ovarian
SK-OV-3 ovarian = test system: SK-OV-3 ovarian
SN12C renal = test system: SN12C renal
T-47D breast = test system: T-47D breast

Structure (SMILES) | TGI (EKVX NSCLC) [µM] | TGI (HCT-15 colon) [µM] | TGI (LOX IMVI melanoma) [µM] | TGI (MALME-3M melanoma) [µM] | TGI (OVCAR-4 ovarian) [µM] | TGI (SK-OV-3 ovarian) [µM] | TGI (SN12C renal) [µM] | TGI (T-47D breast) [µM] | GI50 (EKVX NSCLC) [µM] | GI50 (HCT-15 colon) [µM] | GI50 (LOX IMVI melanoma) [µM] | GI50 (MALME-3M melanoma) [µM] | GI50 (OVCAR-4 ovarian) [µM] | GI50 (SK-OV-3 ovarian) [µM] | GI50 (SN12C renal) [µM] | GI50 (T-47D breast) [µM]
CC1(C)[C@H]2CC[C@]1(C)[C@H](OC(=O)NNC(=O)O[C@@H]1C[C@@H]3CC[C@@]1(C)C3(C)C)C2 | 31.2 | 27.5 | > 100 | 33.8 | 24.1 | 28.6 | 24.7 | 23 |  |  |  |  |  |  |  | 
O=C1c2cc3c(cc2CC12Cc1ccc4c(c1C2=O)CCCC4)CCCC3 (stereo unspecified) | > 100 | > 100 | > 100 | > 100 | 62.8 | 87.4 |  | > 100 |  |  |  |  |  |  |  | 
CC1(O)CC(=O)c2c(cc3ccc(-c4c5c(c(O)c6c(O)cccc46)C(=O)CC(C)(O)C5)c(O)c3c2O)C1 (stereo unspecified) | 4.35 | 4.08 | 5.41 | 1.61 | 12.9 | > 100 | 13.1 |  |  |  |  |  |  |  |  | 
O=c1c2cc(I)ccc2nc(-c2cccs2)n1-c1ccc(O)cc1 | 33.4 | 26.1 | 28.5 | 20.6 | 49.1 |  | 40.7 | 10.7 |  |  |  |  |  |  |  | 
Cc1cc(N2CCCC2)nc(N(CCNc2ccnc3cc(Cl)ccc23)Cc2ccco2)n1 | > 100 | > 100 | 10.4 | 80.7 | > 100 | 38.8 | > 100 | 6.5 | 5.7 | 3.19 | 2.66 | 4.13 | 3.22 | 7.16 | 3.88 | 2.39
CCCCCCCCCCCCCCCCCCNc1ccn(C2OC(COP(=O)(O)OCC3OC(n4cc(F)c(NCCCCCCCCCCCCCCCCCC)nc4=O)CC3O)C(O)C2O)c(=O)n1 (stereo unspecified) | > 100 | > 100 | > 100 | > 100 | > 100 | > 100 | > 100 | > 100 |  |  |  |  |  |  |  | 
COc1ccc(C(SC2C(O)C(CO)OC2n2ccc(N)nc2=O)(c2ccccc2)c2ccc(OC)cc2)cc1 (stereo unspecified) | 50.4 | 46.2 | 33.1 | 28.3 | 78.2 | 56.1 | 27.5 | 47.4 |  |  |  |  |  |  |  | 
CC(C)(Oc1ccc(Cl)cc1)C(=O)N(C(=O)N1CCC(c2ccccc2)CC1)c1ccccc1 | > 100 | > 100 | > 100 | > 100 | > 100 | > 100 | > 100 | > 30.3 |  |  |  |  |  |  |  | 
COc1ccccc1NC(=O)CC(=O)N1N=C(C)C(N=Nc2ccc(C(=O)O)cc2)C1=O (stereo unspecified) | > 100 | > 100 | > 100 | > 100 | > 100 |  | > 100 | > 100 |  |  |  |  |  |  |  | 
c1cn(C23C4C5C6C4C2C6C53)cn1 (stereo unspecified) | > 100 | > 100 | > 100 |  |  | > 100 | > 100 | > 100 |  |  |  |  |  |  |  | 
COc1cc(C2c3cc4c(cc3OC(NNC(N)=O)C2C)OCO4)cc(OC)c1O (stereo unspecified) | > 100 | > 100 | > 100 | > 100 | > 100 | > 51.5 | > 90.4 | > 100 |  |  |  |  |  |  |  | 
C=C(C)C(O)C(O)c1c(OC)ccc2ccc(=O)oc12 (stereo unspecified) | > 100 | > 100 |  | > 100 | > 100 | > 100 | > 100 | > 100 |  |  |  |  |  |  |  | 
COc1ccc(-c2cc(-c3ccc(Nc4ccnc5cc(Cl)ccc45)cc3)[nH]c(=O)c2C#N)c2ccccc12 | > 100 | > 100 |  | 8.01 |  | 43.7 | 46.9 |  |  |  |  |  |  |  |  | 
COc1ccc(-n2c(=O)n(C)c(=O)n2-c2ccc(OC)cc2)cc1 | > 100 | > 100 | > 100 |  |  | > 100 | > 100 | > 100 |  |  |  |  |  |  |  | 
C(CCCCc1nnc(N2CCCCC2)o1)CCCc1nnc(N2CCCCC2)o1 | > 100 | > 100 | > 100 | > 100 | > 100 | > 100 | > 100 |  |  |  |  |  |  |  |  | 
Oc1c([Si](c2ccccc2)(c2ccccc2)c2ccccc2)cc2ccccc2c1-c1c(O)c([Si](c2ccccc2)(c2ccccc2)c2ccccc2)cc2ccccc12 | > 100 | > 100 | > 100 | > 100 | > 100 | > 100 |  | > 100 |  |  |  |  |  |  |  | 
COC1OC2COC1(OC)C1OC(C)(C)OC21 (stereo unspecified) | > 100 | > 100 |  | > 100 | > 100 | > 100 | > 100 | > 100 |  |  |  |  |  |  |  | 
NCCCN(CCCN)CCN(CCN(CCCN)CCCN)CCN(CCCN)CCCN |  | > 100 | > 100 |  | > 100 | > 100 | > 100 | > 100 |  |  |  |  |  |  |  | 
CCOC(=O)c1cc2c(C(=O)c3ccc([N+](=O)[O-])cc3)c(C(C)=O)ccc2[nH]1 | > 100 | > 100 | > 100 |  | > 100 | 51.3 | > 100 | > 100 |  |  |  |  |  |  |  | 
O=C(O)c1ccn(-c2cccc(-n3ccc(C(=O)O)n3)n2)n1 | > 100 | > 100 | > 100 | > 100 | > 100 | > 100 | > 100 |  |  |  |  |  |  |  |  | 
CCOC(=O)C(NC(=O)CC)(Nc1cc(C)on1)C(F)(F)F (stereo unspecified) | > 100 | > 100 | > 100 |  |  |  | > 100 | > 100 |  |  |  |  |  |  |  | 
Cc1ccc2c(c1C)C(=O)/C(=C/c1ccccc1C(=O)O)C2 | > 100 | > 100 | > 100 | > 100 | > 100 |  | > 100 | > 100 |  |  |  |  |  |  |  | 
CC(C)C(OC(=O)c1ccc(NCc2cc(O)ccc2O)cc1)C(C)C | 5.32 | 1.77 | 2.31 | 3.3 | 4.33 |  | 11.9 | 3.4 |  |  |  |  |  |  |  | 
CN(C)c1nc2oc(-c3ccccc3)c(-c3ccccc3)c2c2nnnn12 | > 100 | > 100 | > 100 |  | > 100 | > 100 | > 100 | > 100 |  |  |  |  |  |  |  | 
NNC(=O)Cn1c2ccc(Br)cc2c2nc3ccccc3nc21 | > 100 |  |  |  |  | > 100 | > 100 | > 100 |  |  |  |  |  |  |  | 
C/C(Nc1ccc(F)cc1)=C1/CCOC1=O | > 100 | > 100 | > 100 | > 100 | > 100 |  | > 100 | > 100 |  |  |  |  |  |  |  | 
